# Measurements: US8946430B2, “Quinolinone carboxamide inhibitors of endothelial lipase” (Bristol-Myers Squibb Company, priority 2011, dated 2015)
# Target: T1, endothelial lipase (EL) (Homo sapiens, UniProt Q9Y5X9)
# T1 construct: transformed by RAGE technology (Athersys) to overexpress endogenous EL; endogenous in cells; conditioned medium used as the enzyme source
# T1 sequence (Q9Y5X9 21-500): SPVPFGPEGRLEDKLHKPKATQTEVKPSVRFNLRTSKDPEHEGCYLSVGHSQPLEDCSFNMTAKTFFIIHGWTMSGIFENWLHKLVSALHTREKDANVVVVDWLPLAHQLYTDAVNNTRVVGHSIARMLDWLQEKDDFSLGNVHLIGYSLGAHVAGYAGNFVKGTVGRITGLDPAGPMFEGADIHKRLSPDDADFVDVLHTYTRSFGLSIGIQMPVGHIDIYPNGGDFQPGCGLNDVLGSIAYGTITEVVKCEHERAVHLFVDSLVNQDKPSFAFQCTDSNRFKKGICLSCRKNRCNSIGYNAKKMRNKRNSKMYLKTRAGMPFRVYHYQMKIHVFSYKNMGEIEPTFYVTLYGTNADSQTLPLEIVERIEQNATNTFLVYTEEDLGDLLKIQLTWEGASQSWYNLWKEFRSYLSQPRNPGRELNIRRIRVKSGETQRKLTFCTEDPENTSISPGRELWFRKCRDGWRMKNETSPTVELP
# Test: Endothelial lipase (EL) enzymatic assay with fluorescent substrate A10070 in DMPG vesicles
# Type: biochemical
# Settings: conditioned media from HT-1080 cells overexpressing endogenous EL; 20 min preincubation at 37° C.; FRET substrate A10070; read-out: HLE_EL_CRC IC50
# Protocol: Endothelial lipase activity was measured using a fluorescent substrate, A10070, (Invitrogen, CA) doped into an artificial vesicle containing DMPG (Avanti Polar Lipids) as the excipient. Vesicles were prepared by combining 285 uL of 1 mM DMPG in a 1:1 mixture of MeOH and CHCl3 with 15 uL of 1 mM A10070 in a 1:1 mixture of MeOH and CHCl3. The mixture was dried under nitrogen and resuspended in 150 uL of 50 mM HEPES pH 8.0 buffer containing 100 mM NaCl and 0.2 mM EDTA. The sample was allowed to sit at rt for 15 min and then was sonicated 3×4 mins on ice with a Branson Sonicator using duty cycle 1. This preparation provides vesicles with a mole fraction of 0.05 for the FRET substrate.
# The enzymatic assay was measured using white, opaque 96-well half area plates. Each well contained 60 uL of assay buffer (50 mM HEPES pH 8.0, 50 mM NaCl and 1 mM CaCl2) and 2 ul of a DMSO solution containing compound of interest. Conditioned media obtained from HT-1080 cells, which were transformed by RAGE technology (Athersys) to overexpress endogenous EL, was added and the reaction was allowed to incubate for 20 min at 37° C. with gentle agitation. The reaction was started by the addition of 20 uL of a 1:4 dilution of vesicles. The final total reaction volume was 100 uL. The reaction rates were measured on a Gemini plate reader with an excitation wavelength of 488 nm and a emission of 530 nm. Readings were taken every 20 seconds for 10 min with agitation between each reading. The slope of the linear portion of the readout was used to calculate the rate of the reaction.
row,SMILES,IC50
1,"Cn1c(=O)c(O)c(C(=O)NCCCc2ccc(Cl)c(Cl)c2)c2ccccc21 [Example 1, N-(3-(3,4-dichlorophenyl)propyl)-3-hydroxy-1-methyl-2-oxo-1,2-dihydroquinoline-4-carboxamide]",10 nM
2,"Cn1c(=O)c(O)c(C(=O)NCCCc2ccc(Cl)cc2Cl)c2ccccc21 [Example 2, N-(3-(2,4-Dichlorophenyl)propyl)-3-hydroxy-1-methyl-2-oxo-1,2-dihydroquinoline-4-carboxamide]",13 nM
3,"Cn1c(=O)c(O)c(C(=O)NCCCc2ccc(Cl)c(Cl)c2)c2cc(Cl)ccc21 [Example 3, 6-Chloro-N-(3-(3,4-dichlorophenyl)propyl)-3-hydroxy-1-methyl-2-oxo-1,2-dihydroquinoline-4-carboxamide]",10 nM
4,"O=C(NCCCc1ccc(Cl)c(Cl)c1)c1c(O)c(=O)[nH]c2ccccc12 [Example 5, N-(3-(3,4-dichlorophenyl)propyl)-3-hydroxy-2-oxo-1,2-dihydroquinoline-4-carboxamide]",11 nM
5,"Cn1c(=O)c(O)c(C(=O)NCCOc2ccc(Cl)cc2)c2ccccc21 [Example 26, N-(2-(4-chlorophenoxy)ethyl)-3-hydroxy-1-methyl-2-oxo-1,2-dihydroquinoline-4-carboxamide]",91 nM
6,"Cn1c(=O)c(O)c(C(=O)NCCCc2ccccc2Cl)c2ccccc21 [Example 27, N-(3-(2-chlorophenyl)propyl)-3-hydroxy-1-methyl-2-oxo-1,2-dihydroquinoline-4-carboxamide]",35 nM
7,"O=C(NCCCc1ccc(Cl)cc1Cl)c1c(O)c(=O)[nH]c2ccc(OC(F)(F)F)cc12 [Example 28, N-(3-(2,4-dichlorophenyl)propyl)-3-hydroxy-2-oxo-6-(trifluoromethoxy)-1,2-dihydroquinoline-4-carboxamide]",35 nM
8,"O=C(NCc1cccc(-c2ccc(Cl)cc2)c1)c1c(O)c(=O)[nH]c2ccc(OC(F)(F)F)cc12 [Example 42, N-((4′-chlorobiphenyl-3-yl)methyl)-3-hydroxy-2-oxo-6-(trifluoromethoxy)-1,2-dihydroquinoline-4-carboxamide]",96 nM
9,"O=C(NCCCc1c(Cl)cccc1Cl)c1c(O)c(=O)[nH]c2ccc(OC(F)(F)F)cc12 [Example 43, N-(3-(2,6-dichlorophenyl)propyl)-3-hydroxy-2-oxo-6-(trifluoromethoxy)-1,2-dihydroquinoline-4-carboxamide]",70 nM
10,"O=C(NCCCOc1ccccc1C(F)(F)F)c1c(O)c(=O)[nH]c2ccc(OC(F)(F)F)cc12 [Example 50, 3-hydroxy-2-oxo-6-(trifluoromethoxy)-N-(3-(2-(trifluoromethyl)phenoxy)propyl)-1,2-dihydroquinoline-4-carboxamide]",12 nM
11,"O=C(NCCCOc1c(Cl)cccc1Cl)c1c(O)c(=O)[nH]c2ccc(OC(F)(F)F)cc12 [Example 51, N-(3-(2,6-dichlorophenoxy)propyl)-3-hydroxy-2-oxo-6-(trifluoromethoxy)-1,2-dihydroquinoline-4-carboxamide]",40 nM
12,"O=C(NCC1CN(S(=O)(=O)c2ccc(Cl)c(Cl)c2)C1)c1c(O)c(=O)[nH]c2ccc(OC(F)(F)F)cc12 [Example 55, N-((1-(3,4-dichlorophenylsulfonyl)azetidin-3-yl)methyl)-3-hydroxy-2-oxo-6-(trifluoromethoxy)-1,2-dihydroquinoline-4-carboxamide]",25 nM
13,"C[C@@H](NC(=O)c1c(O)c(=O)n(C)c2ccccc12)c1cccc(-c2ccccc2)c1 [Example 64, (R)-N-(1-(biphenyl-3-yl)ethyl)-3-hydroxy-1-methyl-2-oxo-1,2-dihydroquinoline-4-carboxamide]",64 nM
14,"Cn1c(=O)c(O)c(C(=O)NCc2ccc(OC(F)(F)F)cc2)c2ccccc21 [Example 85, 3-hydroxy-1-methyl-2-oxo-N-(4-(trifluoromethoxy)benzyl)-1,2-dihydroquinoline-4-carboxamide]",43 nM
15,"Cn1c(=O)c(O)c(C(=O)NCc2cccc(OC(F)(F)F)c2)c2ccccc21 [Example 86, 3-hydroxy-1-methyl-2-oxo-N-(3-(trifluoromethoxy)benzyl)-1,2-dihydroquinoline-4-carboxamide]",37 nM
16,"Cn1c(=O)c(O)c(C(=O)NCc2csc(-c3ccccc3)n2)c2ccccc21 [Example 90, 3-hydroxy-1-methyl-2-oxo-N-((2-phenylthiazol-4-yl)methyl)-1,2-dihydroquinoline-4-carboxamide]",83 nM
17,"Cn1c(=O)c(O)c(C(=O)NCCc2ccc(C(F)(F)F)cc2)c2ccccc21 [Example 92, 3-hydroxy-1-methyl-2-oxo-N-(4-(trifluoromethyl)phenethyl)-1,2-dihydroquinoline-4-carboxamide]",84 nM
18,"COC[C@H](Cc1ccccc1)NC(=O)c1c(O)c(=O)n(C)c2ccccc12 [Example 96, (S)-3-hydroxy-N-(1-methoxy-3-phenylpropan-2-yl)-1-methyl-2-oxo-1,2-dihydroquinoline-4-carboxamide]",8530 nM
19,"Cn1c(=O)c(O)c(C(=O)NCCCN2CCCC2=O)c2ccccc21 [Example 103, 3-hydroxy-1-methyl-2-oxo-N-(3-(2-oxopyrrolidin-1-yl)propyl)-1,2-dihydroquinoline-4-carboxamide]",9360 nM
20,"Cn1c(=O)c(O)c(C(=O)NCc2ccc(C(F)(F)F)cc2)c2ccccc21 [Example 105, 3-hydroxy-1-methyl-2-oxo-N-(4-(trifluoromethyl)benzyl)-1,2-dihydroquinoline-4-carboxamide]",100 nM
21,"Cn1c(=O)c(O)c(C(=O)NCc2nc3ccccc3s2)c2ccccc21 [Example 107, N-(benzo[d]thiazol-2-ylmethyl)-3-hydroxy-1-methyl-2-oxo-1,2-dihydroquinoline-4-carboxamide]",11100 nM
22,"Cn1c(=O)c(O)c(C(=O)NCc2ccccc2N2CCCC2)c2ccccc21 [Example 109, 3-hydroxy-1-methyl-2-oxo-N-(2-(pyrrolidin-1-yl)benzyl)-1,2-dihydroquinoline-4-carboxamide]",2910 nM
23,"Cn1c(=O)c(O)c(C(=O)NCCCOc2ccc(-c3ccccc3)cc2)c2ccccc21 [Example 133, N-(3-(biphenyl-4-yloxy)propyl)-3-hydroxy-1-methyl-2-oxo-1,2-dihydroquinoline-4-carboxamide]",10 nM
24,"Cn1c(=O)c(O)c(C(=O)NCc2ccccc2N2CCC(CO)CC2)c2ccccc21 [Example 141, 3-hydroxy-N-(2-(4-(hydroxymethyl)piperidin-1-yl)benzyl)-1-methyl-2-oxo-1,2-dihydroquinoline-4-carboxamide]",1700 nM
25,"COc1ccccc1OCCCNC(=O)c1c(O)c(=O)n(C)c2ccccc12 [Example 147, 3-hydroxy-N-(3-(2-methoxyphenoxy)propyl)-1-methyl-2-oxo-1,2-dihydroquinoline-4-carboxamide]",49 nM
26,"Cn1c(=O)c(O)c(C(=O)NCCc2ccc(-c3ccc(F)cc3)cc2)c2ccccc21 [Example 151, N-(2-(4′-fluorobiphenyl-4-yl)ethyl)-3-hydroxy-1-methyl-2-oxo-1,2-dihydroquinoline-4-carboxamide]",75 nM
27,"Cn1c(=O)c(O)c(C(=O)NC(Cc2ccccc2)c2ccccc2)c2ccccc21 (stereo not shown) [Example 155, N-(1,2-diphenylethyl)-3-hydroxy-1-methyl-2-oxo-1,2-dihydroquinoline-4-carboxamide]",3120 nM
28,"Cn1c(=O)c(O)c(C(=O)NCc2cccc(-n3cccc3)c2)c2ccccc21 [Example 172, N-(3-(1H-pyrrol-1-yl)benzyl)-3-hydroxy-1-methyl-2-oxo-1,2-dihydroquinoline-4-carboxamide]",10 nM
